This note sets out measurements from paper PMC5630020 (Genes & Development, 2017).

In one data set the target is E. coli SspA homodimer (Escherichia coli, UniProt P0ACA3). It counts as binding.
The data set “SEC” deals with the molecule itself. The data set is described as follows: SEC.

Consider `Nc1nc2c(ncn2[C@@H]2O[C@H](COP(=O)(O)OP(=O)(O)O)[C@@H](OP(=O)(O)OP(=O)(O)O)[C@H]2O)c(=O)[nH]1` [ppGpp], for which the DRaCALA result on E. coli SspA homodimer is “only very weak binding requiring ppGpp concentrations in the high micromolar range”.

B1: E. coli SspA, wild type (natural protein, UniProt P0ACA3 1-212, looked up)
chain: MAVAANKRSVMTLFSGPTDIYSHQVRIVLAEKGVSFEIEHVEKDNPPQDLIDLNPNQSVPTLVDRELTLWESRIIMEYLDERFPHPPLMPVYPVARGESRLYMHRIEKDWYTLMNTIINGSASEADAARKQLREELLAIAPVFGQKPYFLSDEFSLVDCYLAPLLWRLPQLGIEFSGPGAKELKGYMTRVFERDSFLASLTEAEREMRLGRS
notes: also called wild-type SspA; E. coli SspA homodimer
On to B1, for which the “stoichiometry N” value in the data set “SEC” was determined as 2.

By stoichiometry N is commonly meant a count of units in the complex or per binding partner.
